Results: patent US20250346587A1, “NITROGEN-CONTAINING FIVE-MEMBERED HETEROCYCLIC DERIVATIVES AS CHECKPOINT KINASE 1 INHIBITOR AND USES THEREOF” (SPEROGENIX THERAPEUTICS LIMITED, priority 2022, published 2025)
Converted amounts (≈) assume the structure as drawn.

Key:
CHK-1 kinase = CHK-1 kinase (Homo sapiens (Human), UniProt O14757); test: CHK-1 % inhibition kinase assay (TR-FRET); format: biochemical; conditions: ATP 15 μM; for inhibition at 0.03 µM / inhibition at 0.3 µM: CHK1 enzyme; for inhibition at 0.03 µM: compound 30 nM; for inhibition at 0.3 µM: compound 300 nM; for IC50: TR-FRET, read-out: CHK1 IC50
Protocol: Inhibition of CHK-1 kinase or percent inhibition at defined concentrations was determined by TR-FRET assay. Kinase reactions were performed in a 20 μL volume in low-volume 384-well plates (Cat #Corning 4511). The concentration of substrate Fluorescein-CREBtide was maintained at 0.2 μM in the assay, and the kinase reaction buffer consisted of 50 mM HEPES pH 7.5, 0.01% BRIJ-35, 10 mM MgCl2, 1 mM EGTA. Serially diluted compounds (3-fold) in DMSO (0.5% in final reaction) were incubated with cocktail of CHK-1 kinase (6 nM; Cat #PR3959B, ThermoFisher), Fluorescein-CREBtide (0.2 μM; Cat #PV3508, ThermoFisher), ATP (15 μM; Cat #A1852, Sigma), and kinase reaction buffer. After 1 hour kinase reactions at room temperature, 10 μL of Detection mix (8 nM LanthaScreen® Tb-CREB [pSer133] antibody, Cat #PV3542, ThermoFisher with 20 mM EDTA in TR-FRET Buffer, Cat #PV3574, ThermoFisher) was added, and the plate was read with a plate reader (Synergy™ NEO; Biotek) for TR-FRET.
The resulting TR-FRET emission ratio was used to calculate the percent inhibition by normalizing to the control using the following formula: […]

[1] = Microsomal stability assay, human liver microsome; format: in vitro ADME; conditions: liver microsomes, pH 7.4, 0.2 mg/mL, 1 μM compound, 37° C., read-out: Clint HLM
Protocol: (§1) Incubation mixture contained 0.2 mg/mL microsomes, 1 mmol NADPH, and test compound at 1 μM in 100 mmol potassium phosphate buffer at pH 7.4. The mixtures were incubated at 37° C. for 5, 15, and 30 minutes. Aliquots of the mixtures were taken at 0, 5, 15 and 30 minutes and quenched with chilled Acetonitrile:Methanol (50:50) containing internal standard. Following completion of incubation, samples were centrifuged at 4,000 rpm at 4° C. The supernatant was analyzed by LC-MS/MS and half-life, as well as intrinsic clearance (Clint), were calculated.

[2] = Microsomal stability assay, mouse liver microsome; format: in vitro ADME; conditions: liver microsomes, pH 7.4, 0.2 mg/mL, 1 μM compound, 37° C., read-out: Clint MLM
Protocol: as §1

[3] = Microsomal stability assay, rat liver microsome; format: in vitro ADME; conditions: liver microsomes, pH 7.4, 0.2 mg/mL, 1 μM compound, 37° C., read-out: Clint RLM
Protocol: as §1

[4] = Kinetic solubility assay (nephelometry); conditions: PBS, 37 °C, pH 7.4, aqueous buffer, kinetic from dmso stock
Protocol: Test articles were serially diluted in DMSO from concentration range of 10 mM to 0.078 mM in 96 well v-bottom dilution plate (#3363, Corning). 1 μL of test article from each well was transferred to 96 well flat bottom clear plates (#655101, Greiner) containing 99 μL of PBS at pH-7.4, which makes the test drug final concentration range from 100 μM to 0.78 μM. Samples were incubated for 1 hour at 37° C. followed by measurement of light scattering at 625 nm with a laser based micro plate Nephelometer (Nephlostar Plus, BMG Labtech). Solubility concentration (μM) was then calculated by segmental regression with Neplometer as Readout.

Sequence of CHK-1 kinase (O14757 whole entry): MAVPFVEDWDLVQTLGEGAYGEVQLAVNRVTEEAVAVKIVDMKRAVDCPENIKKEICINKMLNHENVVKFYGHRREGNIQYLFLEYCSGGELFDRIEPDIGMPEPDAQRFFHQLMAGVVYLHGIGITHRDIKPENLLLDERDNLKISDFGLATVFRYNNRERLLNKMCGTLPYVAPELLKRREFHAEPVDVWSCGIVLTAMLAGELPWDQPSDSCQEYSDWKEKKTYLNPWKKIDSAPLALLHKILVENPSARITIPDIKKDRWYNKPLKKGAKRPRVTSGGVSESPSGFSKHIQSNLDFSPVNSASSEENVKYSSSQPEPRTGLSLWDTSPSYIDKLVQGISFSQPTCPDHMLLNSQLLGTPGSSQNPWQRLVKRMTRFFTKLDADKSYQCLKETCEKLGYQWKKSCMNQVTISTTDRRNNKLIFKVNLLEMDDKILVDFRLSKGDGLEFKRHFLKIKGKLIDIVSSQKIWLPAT

SMILES	inhibition at 0.03 µM (CHK-1 kinase) [%]	inhibition at 0.3 µM (CHK-1 kinase) [%]	IC50 (CHK-1 kinase) [µM]	microsomal CLint at 1 μM [1] [µL/min/mg]	microsomal CLint at 1 μM [2] [µL/min/mg]	microsomal CLint at 1 μM [3] [µL/min/mg]	solubility kinetic at 1 h [4] [µM]
N#Cc1cnc(Nc2cc(-c3ccccc3OC3CNC3)on2)cn1 [Compound 1.4, 5-(5-(2-(azetidin-3-yloxy)phenyl)isoxazol-3-ylamino) pyrazine-2-carbonitrile]	7	54	0.0864	52	66	27	100 (≈ 33.4 µg/mL)
N#Cc1cnc(Nc2cc(-c3ccccc3OCCCN)on2)cn1 [Compound 1.5, 5-(5-(2-(3-aminopropoxy)phenyl)isoxazol-3-ylamino) pyrazine-2-carbonitrile]	63	89	0.00782	78	77	70	41.8 (≈ 14.1 µg/mL)
N#Cc1cnc(Nc2cc(-c3ccccc3OCCCCN)on2)cn1 [Compound 1.6, 5-(5-(2-(4-aminobutoxy)phenyl)isoxazol-3-ylamino) pyrazine-2-carbonitrile]	71	91	0.0123	63	63	118	42.8 (≈ 15 µg/mL)
N#Cc1cnc(Nc2cc(-c3ccccc3OCCN)on2)cn1 [Compound 1.7, 5-(5-(2-(2-aminoethoxy)phenyl)isoxazol-3-ylamino) pyrazine-2-carbonitrile]	36	82	–	75	114	118	39.2 (≈ 12.6 µg/mL)
CN1CCOC(COc2ccccc2-c2cc(Nc3cnc(C#N)cn3)no2)C1 (stereo not drawn) [Compound 1.8, 5-(5-(2-((4-methylmorpholin-2-yl)methoxy)phenyl)isoxazol-3-ylamino) pyrazine-2-carbonitrile]	51	64	0.0766	202	481	104	32 (≈ 12.6 µg/mL)
CN1CC(Oc2ccccc2-c2cc(Nc3cnc(C#N)cn3)no2)C1 [Compound 1.10, 5-(5-(2-(1-methylazetidin-3-yloxy)phenyl)isoxazol-3-ylamino) pyrazine-2-carbonitrile]	44	65	–	80	243	49	30.5 (≈ 10.6 µg/mL)
COc1ccccc1-c1cc(Nc2cnc(C#N)cn2)no1 [Compound 1.11, 5-(5-(2-methoxyphenyl)isoxazol-3-ylamino) pyrazine-2-carbonitrile]	12	36	–	140	382	79	14 (≈ 4.11 µg/mL)
CC(C)CC(C)N1CC(Oc2ccccc2-c2cc(Nc3cnc(C#N)cn3)no2)C1 (stereo not drawn) [Compound 1.12, 5-(5-(2-(1-(4-methylpentan-2-yl)azetidin-3-yloxy)phenyl)isoxazol-3-ylamino) pyrazine-2-carbonitrile]	21	30	–	478	473	266	38.4 (≈ 16.1 µg/mL)
CC(C)N1CC(Oc2ccccc2-c2cc(Nc3cnc(C#N)cn3)no2)C1 [Compound 1.13, 5-(5-(2-(1-isopropylazetidin-3-yloxy)phenyl)isoxazol-3-ylamino) pyrazine-2-carbonitrile]	15	32	–	86	221	84	11.9 (≈ 4.48 µg/mL)
N#Cc1cnc(Nc2cc(-c3ccccc3OC3CCNC3)on2)cn1 (stereo not drawn) [Compound 1.14, 5-(5-(2-(pyrrolidin-3-yloxy)phenyl)isoxazol-3-ylamino) pyrazine-2-carbonitrile]	37	60	–	34	56	23	39.6 (≈ 13.8 µg/mL)
N#Cc1cnc(Nc2cc(-c3ccccc3O[C@H]3CC[C@@H](N)CC3)on2)cn1 [Compound 1.15, 5-(5-(2-((1s,4s)-4-aminocyclohexyloxy)phenyl)isoxazol-3-ylamino) pyrazine-2-carbonitrile]	39	79	–	12	25	33	100 (≈ 37.6 µg/mL)
CN1CCCC(COc2ccccc2-c2cc(Nc3cnc(C#N)cn3)no2)C1 (stereo not drawn) [Compound 1.16, 5-(5-(2-((1-methylpiperidin-3-yl)methoxy)phenyl)isoxazol-3-ylamino) pyrazine-2-carbonitrile]	9	75	–	117	141	138	38.2 (≈ 14.9 µg/mL)
N#Cc1cnc(Nc2cc(-c3ccccc3OCC3CNC3)on2)cn1 [Compound 1.17, 5-(5-(2-(azetidin-3-ylmethoxy)phenyl)isoxazol-3-ylamino) pyrazine-2-carbonitrile]	69	95	–	26	50	43	48 (≈ 16.7 µg/mL)
CCC(C)N1CC(Oc2ccccc2-c2cc(Nc3cnc(C#N)cn3)no2)C1 (stereo not drawn) [Compound 1.18, 5-(5-(2-(1-sec-butyl-azetidin-3-yloxy)phen-yl)isoxazol-3-ylamino)-pyrazine-2-carbonitrile]	4	28	–	145	297	130	48 (≈ 18.7 µg/mL)
N#Cc1cnc(Nc2cc(-c3ccccc3OC3CC(N)C3)on2)cn1 (stereo not drawn) [Compound 1.20, 5-(5-(2-(3-aminocyclobutoxy)phenyl)isoxazol-3-ylamino) pyrazine-2-carbonitrile]	60.2	91.9	–	47	86	46	29.4 (≈ 10.2 µg/mL)
N#Cc1cnc(Nc2cc(-c3ccccc3OC3CC4(CNC4)C3)on2)cn1 [Compound 1.21, 5-(5-(2-(2-azaspiro[3.3]heptan-6-yloxy)phenyl)isoxazol-3-ylamino) pyrazine-2-carbonitrile]	78.7	95.5	–	20	18	37	18.8 (≈ 7.04 µg/mL)
N#Cc1cnc(Nc2cc(-c3ccccc3OCC3CCNC3)on2)cn1 (stereo not drawn) [Compound 1.23, 5-(5-(2-(pyrrolidin-3-ylmethoxy)phenyl)isoxazol-3-ylamino) pyrazine-2-carbonitrile]	82	99	–	37	52	50	46.6 (≈ 16.9 µg/mL)
N#Cc1cnc(Nc2cc(-c3cc4ccccc4cc3OCC3CCNCC3)[nH]n2)cn1 [Compound 2.1, 5-(5-(3-(piperidin-4-ylmethoxy)naphthalen-2-yl)-1H-pyrazol-3-ylamino) pyrazine-2-carbonitrile]	27	91	0.00246	25	101	36	34.7 (≈ 14.8 µg/mL)
N#Cc1cnc(Nc2cc(-c3cc4ccccc4cc3OCC3CNC3)[nH]n2)cn1 [Compound 2.2, 5-(5-(3-(azetidine-3-ylmethoxy)naphthalen-2-yl)-1H-pyrazol-3-ylamino) pyrazine-2-carbonitrile]	80	96	0.00414	21	153	45	41.8 (≈ 16.6 µg/mL)
